The record followed here is the SangsterLogP compilation.

A short description of this data set: method code SF-AS, from DOI: 10.1002/1520-6017(200012)89:12<1525::aid-jps3>3.0.co;2-t. As to conditions: for logD: pH 7.4.

The molecule `CCCC(=O)NCCCCCN(O)C(=O)CCC(=O)NCCCCCN(O)C(=O)CCC(=O)NCCCCCN(O)C(C)=O` showed a logP of 0.42.

Consider `CC(=O)N(O)CCCCCNC(=O)CCC(=O)N(O)CCCCCNC(=O)CCC(=O)N(O)CCCCCNC=O`, for which the logP was -0.1.

The molecule `CCCCCC(=O)NCCCCCN(O)C(=O)CCC(=O)NCCCCCN(O)C(=O)CCC(=O)NCCCCCN(O)C(C)=O` came in with a logD of 1.1.

With `CC(=O)N(O)CCCCCNC(=O)CCC(=O)N(O)CCCCCNC(=O)CCC(=O)N(O)CCCCCNC(=O)CCC(=O)O`, the logP is -0.5.

`CCCCCCCC(=O)NCCCCCN(O)C(=O)CCC(=O)NCCCCCN(O)C(=O)CCC(=O)NCCCCCN(O)C(C)=O` registered a logD of 1.09.

The molecule `CCCCC(=O)NCCCCCN(O)C(=O)CCC(=O)NCCCCCN(O)C(=O)CCC(=O)NCCCCCN(O)C(C)=O` returned a logP of 0.88.

As to `CCC(=O)NCCCCCN(O)C(=O)CCC(=O)NCCCCCN(O)C(=O)CCC(=O)NCCCCCN(O)C(C)=O`, the logP is 0.26.

In turn, `CC(=O)NCCCCCN(O)C(=O)CCC(=O)NCCCCCN(O)C(=O)CCC(=O)NCCCCCN(O)C(C)=O` came in with a lipophilicity (logP) of 0.1.

Regarding `CC(=O)N(O)CCCCCNC(=O)CCC(=O)N(O)CCCCCNC(=O)CCC(=O)N(O)CCCCCNC(=O)c1ccccc1`, the logP came out at 0.86.

For `CC(=O)N(O)CCCCCNC(=O)CCC(=O)N(O)CCCCCNC(=O)CCC(=O)N(O)CCCCCNC(=O)Cc1ccccc1`, the logP came to 0.9.
